Results from article PMC11836120, “A small signaling domain controls PPIP5K phosphatase activity in phosphate homeostasis” (Nature Communications, 2025).

Columns and labels:
[1] = target: T1, ScVip1 kinase-phosphatase tandem domains (ScVip1^KD-PD) (Saccharomyces cerevisiae, UniProt Q06685); assay: HDX-MS, […] molar excess
T1 construct: gene VIP1
T1 sequence (Q06685 186-1107): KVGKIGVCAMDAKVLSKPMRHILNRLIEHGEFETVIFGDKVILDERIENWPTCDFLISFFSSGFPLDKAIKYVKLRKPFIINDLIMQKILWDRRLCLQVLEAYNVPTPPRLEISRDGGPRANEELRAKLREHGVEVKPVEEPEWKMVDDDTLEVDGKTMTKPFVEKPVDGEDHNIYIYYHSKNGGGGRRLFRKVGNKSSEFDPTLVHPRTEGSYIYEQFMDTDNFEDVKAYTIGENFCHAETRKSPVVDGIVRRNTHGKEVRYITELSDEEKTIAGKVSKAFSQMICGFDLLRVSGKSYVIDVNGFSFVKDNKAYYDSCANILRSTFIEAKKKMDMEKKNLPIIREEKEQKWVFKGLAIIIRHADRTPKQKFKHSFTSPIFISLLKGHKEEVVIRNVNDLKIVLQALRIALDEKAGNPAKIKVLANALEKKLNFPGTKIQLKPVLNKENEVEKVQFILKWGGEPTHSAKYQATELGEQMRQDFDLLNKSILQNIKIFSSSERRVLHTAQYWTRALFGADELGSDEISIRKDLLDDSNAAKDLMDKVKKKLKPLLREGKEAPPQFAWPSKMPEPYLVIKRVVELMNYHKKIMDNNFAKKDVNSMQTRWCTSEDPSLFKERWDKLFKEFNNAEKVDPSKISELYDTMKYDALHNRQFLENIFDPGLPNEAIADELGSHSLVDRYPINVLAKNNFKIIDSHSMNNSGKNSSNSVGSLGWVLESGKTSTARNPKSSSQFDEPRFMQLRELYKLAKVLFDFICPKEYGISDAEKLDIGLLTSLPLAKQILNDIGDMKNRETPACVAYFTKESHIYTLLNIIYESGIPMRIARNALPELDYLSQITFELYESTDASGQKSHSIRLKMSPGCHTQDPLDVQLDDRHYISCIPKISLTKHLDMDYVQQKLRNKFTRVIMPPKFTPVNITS

[2] = target: T2, ScVip1 phosphatase domain (ScVip1^PD) (Saccharomyces cerevisiae, UniProt Q06685); assay: NMR time course of […],5-InsP8 hydrolysis; format: biochemical
T2 construct: gene VIP1; residues 536–1107
T2 sequence (Q06685 536-1107): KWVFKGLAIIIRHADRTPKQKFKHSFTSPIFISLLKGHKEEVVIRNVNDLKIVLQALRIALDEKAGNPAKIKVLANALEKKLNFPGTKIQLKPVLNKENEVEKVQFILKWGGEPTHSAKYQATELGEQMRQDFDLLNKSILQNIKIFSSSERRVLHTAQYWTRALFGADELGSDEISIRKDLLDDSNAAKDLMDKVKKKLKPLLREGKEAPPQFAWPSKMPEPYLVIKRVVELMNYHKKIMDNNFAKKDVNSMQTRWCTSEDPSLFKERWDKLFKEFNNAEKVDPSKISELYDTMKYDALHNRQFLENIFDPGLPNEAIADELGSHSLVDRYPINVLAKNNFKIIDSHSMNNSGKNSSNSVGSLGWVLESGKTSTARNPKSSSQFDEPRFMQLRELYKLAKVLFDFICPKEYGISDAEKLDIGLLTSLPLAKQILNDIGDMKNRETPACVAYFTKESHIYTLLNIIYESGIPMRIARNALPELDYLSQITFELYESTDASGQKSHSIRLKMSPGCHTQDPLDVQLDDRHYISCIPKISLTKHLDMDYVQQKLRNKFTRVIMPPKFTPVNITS

[3] = target: T3, ScVip1 kinase domain (ScVip1^KD) (Saccharomyces cerevisiae, UniProt Q06685); assay: co-crystal structure, […] Å (crystallized with […] ADP and […] MgCl2); format: binding
T3 construct: gene VIP1; residues 186–522

[4] = target: T4, ScVip1 phosphatase domain (ScVip1^PD E991A) (Saccharomyces cerevisiae, UniProt Q06685, E991A); assay: NMR and malachite green phosphatase assays; format: biochemical
T4 construct: gene VIP1; residues 536–1107
T4 sequence (Q06685 536-1107 E991A): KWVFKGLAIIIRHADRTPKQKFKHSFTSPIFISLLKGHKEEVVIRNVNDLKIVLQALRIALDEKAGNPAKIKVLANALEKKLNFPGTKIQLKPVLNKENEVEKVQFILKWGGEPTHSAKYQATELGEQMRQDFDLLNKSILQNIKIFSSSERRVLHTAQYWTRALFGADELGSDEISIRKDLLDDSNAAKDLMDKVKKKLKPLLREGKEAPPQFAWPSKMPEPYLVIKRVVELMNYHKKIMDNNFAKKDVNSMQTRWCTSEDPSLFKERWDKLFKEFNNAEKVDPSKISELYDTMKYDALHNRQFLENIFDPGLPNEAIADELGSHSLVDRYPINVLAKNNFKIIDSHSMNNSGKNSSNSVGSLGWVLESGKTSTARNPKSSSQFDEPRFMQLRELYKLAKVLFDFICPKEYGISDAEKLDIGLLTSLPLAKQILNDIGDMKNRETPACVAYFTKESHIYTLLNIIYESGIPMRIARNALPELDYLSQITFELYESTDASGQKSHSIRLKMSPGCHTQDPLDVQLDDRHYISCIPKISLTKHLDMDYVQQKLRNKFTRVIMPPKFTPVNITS

[5] = substrate: O=P(O)(O)O[C@@H]1[C@@H](OP(=O)(O)O)[C@@H](OP(=O)(O)O)[C@@H](OP(=O)(O)OP(=O)(O)O)[C@H](OP(=O)(O)O)[C@H]1OP(=O)(O)O; assay: malachite green and NMR phosphatase assays, Michaelis-Menten KM; format: biochemical, Saccharomyces cerevisiae
[6] = substrate: O=P(O)(O)O[C@@H]1[C@@H](OP(=O)(O)O)[C@H](OP(=O)(O)OP(=O)(O)O)[C@@H](OP(=O)(O)O)[C@H](OP(=O)(O)OP(=O)(O)O)[C@@H]1OP(=O)(O)O; assay: as above; format: biochemical, Saccharomyces cerevisiae; details: phosphatase active site (RHxxR motif) and GAF-domain substrate channel

Nc1ncnc2c1ncn2[C@@H]1O[C@H](CO[P@](=O)(O)O[P@](=O)(O)NP(=O)(O)O)[C@@H](O)[C@H]1O [AMPPNP, AMP-PNP]
HDX-MS, 100-fold molar excess [1]: Addition of an ATP substrate analog reveals additional protected regions in the vicinity of the active site of the kinase domain

O=P(O)(O)O [inorganic phosphate]
NMR time course of 1,5-InsP8 hydrolysis [2]: ScVip1^PD is inhibited by Pi in a concentration-dependent manner, as inferred from NMR-based assays

Nc1ncnc2c1ncn2[C@@H]1O[C@H](COP(=O)(O)OP(=O)(O)O)[C@@H](O)[C@H]1O [ADP]
co-crystal structure, 1.18 Å (crystallized with 5 mM ADP and 20 mM MgCl2) [3]: The structure of ScVip1^KD in complex with adenosine diphosphate revealed the typical ATP-grasp fold and substrate binding sites

O=P(O)(O)O[C@@H]1[C@@H](OP(=O)(O)O)[C@@H](OP(=O)(O)O)[C@@H](OP(=O)(O)OP(=O)(O)O)[C@H](OP(=O)(O)O)[C@H]1OP(=O)(O)O [1-InsP7]
NMR and malachite green phosphatase assays [4]: Glu991 to Ala mutant readily accepts 1-InsP7 as a substrate in both NMR and malachite green-based phosphatase assays

B1: ScVip1 phosphatase domain (ScVip1^PD) (Saccharomyces cerevisiae S288C) (protein)
chain: KWVFKGLAIIIRHADRTPKQKFKHSFTSPIFISLLKGHKEEVVIRNVNDLKIVLQALRIALDEKAGNPAKIKVLANALEKKLNFPGTKIQLKPVLNKENEVEKVQFILKWGGEPTHSAKYQATELGEQMRQDFDLLNKSILQNIKIFSSSERRVLHTAQYWTRALFGADELGSDEISIRKDLLDDSNAAKDLMDKVKKKLKPLLREGKEAPPQFAWPSKMPEPYLVIKRVVELMNYHKKIMDNNFAKKDVNSMQTRWCTSEDPSLFKERWDKLFKEFNNAEKVDPSKISELYDTMKYDALHNRQFLENIFDPGLPNEAIADELGSHSLVDRYPINVLAKNNFKIIDSHSMNNSGKNSSNSVGSLGWVLESGKTSTARNPKSSSQFDEPRFMQLRELYKLAKVLFDFICPKEYGISDAEKLDIGLLTSLPLAKQILNDIGDMKNRETPACVAYFTKESHIYTLLNIIYESGIPMRIARNALPELDYLSQITFELYESTDASGQKSHSIRLKMSPGCHTQDPLDVQLDDRHYISCIPKISLTKHLDMDYVQQKLRNKFTRVIMPPKFTPVNITS
notes: residues 536–1107
Km [5]: 70 µM
Km [6]: 45 µM
